{"source": "patent US9288989B2", "about": "“Synergistic weed control from applications of penoxsulam and acetochlor” (Dow AgroSciences LLC, priority 2013, dated 2016)", "key": {"POLPE": {"test_system": "POLPE", "assay": "Pre-emergence field trial, weed control, POLPE", "assay_type": "in vivo, Polygonum persicaria L.", "conditions": "14 days", "description": "(§1) The (a) penoxsulam or an agriculturally acceptable salt thereof is mixed with or applied in combination with (b) acetochlor or an agriculturally acceptable salt thereof in an amount sufficient to induce a synergistic herbicidal effect. […] As described in the Herbicide Handbook of the Weed Science Society of America, Ninth Edition, 2007, p. […] In some embodiments, the damage or injury to the undesired vegetation caused by the compositions and methods disclosed herein is evaluated using a scale from 0% to 100%, when compared with the untreated control vegetation, wherein 0% indicates no damage to the undesired vegetation and 100% indicates complete destruction of the undesired vegetation.\n(§2) In Colby's equation, the value E corresponds to the effect (plant damage or injury) that is to be expected if the activity of the individual compounds is additive. If the observed effect is higher than the value E calculated according to the Colby equation, then a synergistic effect is present according to the Colby equation. […]\n(§3) Colby's equation was used to determine the herbicidal effects expected from the mixtures, as described above. The results were measured at the evaluation intervals provided in Table 1 after the first application of the compositions. […]"}, "ECHCO": {"test_system": "ECHCO", "assay": "Pre-emergence field trial, weed control, ECHCO", "assay_type": "in vivo, Echinochloa colonum (L.) Link", "source_text": "(§4) The (a) penoxsulam or an agriculturally acceptable salt thereof is mixed with or applied in combination with (b) acetochlor or an agriculturally acceptable salt thereof in an amount sufficient to induce a synergistic herbicidal effect. […] As described in the Herbicide Handbook of the Weed Science Society of America, Ninth Edition, 2007, p. 429, “‘synergism’ [is] an interaction of two or more factors such that the effect when combined is greater than the predicted effect based on the response to each factor applied separately.” Synergistic in the herbicide context can mean that the use of (a) and (b) as defined above results in an increased weed control effect compared to the weed control effects that are possible with the use of (a) or (b) alone. In some embodiments, the damage or injury to the undesired vegetation caused by the compositions and methods disclosed herein is evaluated using a scale from 0% to 100%, when compared with the untreated control vegetation, wherein 0% indicates no damage to the undesired vegetation and 100% indicates complete destruction of the undesired vegetation.\n(§5) In Colby's equation, the value E corresponds to the effect (plant damage or injury) that is to be expected if the activity of the individual compounds is additive. If the observed effect is higher than the value E calculated according to the Colby equation, then a synergistic effect is present according to the Colby equation.\n(§6) Field trials were conducted with applications made in the area of naturally occurring weed populations in multiple countries. The soil or water was treated prior to the emergence of target plants. All treatments were applied using a randomized complete block trial design, with 3-5 replications per treatment.\n(§7) Treatments consisted of penoxsulam and acetochlor applied alone and in combination. Spray solutions were prepared using an appropriate amount of dilution to treat the area of the plots based on use rates and water volumes necessary based on a per hectare basis. Spray solutions were prepared and applied with the specified active ingredients in single and two-way combinations to be able to perform Colby synergy and safening calculations. Formulated products were applied to the soil with a backpack sprayer equipped with flat fan nozzles calibrated to deliver from 200 to 300 L/ha at a normal spray height above the soil, at spray pressures ranging from 200 to 400 kilopascals (kPa). Formulated products were applied into flooded rice paddy by calculating the area to be treated, calculating the amount of active ingredient necessary to treat the area at the specified rates, then mixing the treatments in water to apply 8 L/ha of water to the plots.\n(§8) Colby's equation was used to determine the herbicidal effects expected from the mixtures, as described above. The results were measured at the evaluation intervals provided in Table 1 after the first application of the compositions. […] The herbicide tank-mix combinations tested, application rates and ratios employed, plant species tested, and results are given below."}, "GALAP": {"test_system": "GALAP", "assay": "Pre-emergence field trial, weed control, GALAP", "assay_type": "in vivo, Galium aparine L.", "source_text": "as §4, §5, §6\nas §7, with “Formulated products were applied into flooded rice paddy by calculating the area to be treated, calculating the amount of active ingredient necessary to treat the area at the specified rates, then mixing the treatments in water to apply 8 L/ha of water to the plots.” left out\nas §3"}, "TRBSS": {"test_system": "TRBSS", "assay": "Pre-emergence field trial, weed control, TRBSS", "assay_type": "in vivo, species of the genus Tribulus", "source_text": "as §4, §5, §6, §7, §8"}, "POLCO": {"test_system": "POLCO", "assay": "Pre-emergence field trial, weed control, POLCO", "assay_type": "in vivo, Polygonum convolvulus L.", "source_text": "as §4, §5, §6, §7, §8"}, "POLLA": {"test_system": "POLLA", "assay": "Pre-emergence field trial, weed control, POLLA", "assay_type": "in vivo, Polygonum lapathifolium L.", "source_text": "as §4, §5, §6, §7, §8"}, "CHEAL": {"test_system": "CHEAL", "assay": "Pre-emergence field trial, weed control, CHEAL", "assay_type": "in vivo, Chenopodium album L.", "source_text": "as §4, §5, §6\nas §7, with “Formulated products were applied into flooded rice paddy by calculating the area to be treated, calculating the amount of active ingredient necessary to treat the area at the specified rates, then mixing the treatments in water to apply 8 L/ha of water to the plots.” left out\nas §3"}, "AMARE": {"test_system": "AMARE", "assay": "Pre-emergence field trial, weed control, AMARE", "assay_type": "in vivo, Amaranthus retroflexus", "conditions": "55 days", "description": "as §1, §2, §3"}, "VIOAR": {"test_system": "VIOAR", "assay": "Pre-emergence field trial, weed control, VIOAR", "assay_type": "in vivo, Viola arvensis Murr.", "conditions": "61 days", "description": "as §1, §2, §3"}, "SOLNI": {"test_system": "SOLNI", "assay": "Pre-emergence field trial, weed control, SOLNI", "assay_type": "in vivo, Solanum nigrum", "source_text": "as §4, §5, §6\nas §7, with “Formulated products were applied into flooded rice paddy by calculating the area to be treated, calculating the amount of active ingredient necessary to treat the area at the specified rates, then mixing the treatments in water to apply 8 L/ha of water to the plots.” left out\nas §3"}, "CYPRO": {"test_system": "CYPRO", "assay": "Pre-emergence field trial, weed control, CYPRO", "assay_type": "in vivo, Cyperus rotundus L.", "conditions": "35 days", "description": "as §1, §2, §3"}, "corn (ZEAMX)": {"test_system": "corn (ZEAMX)", "assay": "Pre-emergence field trial, crop injury, corn", "conditions": "in vivo", "description": "as §1, §2\nColby's equation was used to determine the herbicidal effects expected from the mixtures, as described above. The results were measured at the evaluation intervals provided in Table 2 after the first application of the compositions. […]"}, "[1]": {"conditions": "64 days, acetochlor 1900 g ai/ha"}, "[2]": {"conditions": "28 days, acetochlor 2300 g ai/ha"}}, "note": "Values joined by “and” are separate entries in the source; they are usually repeats but may differ in a detail not shown here. Equal values may be shown once.", "data": [{"smiles": "COc1cnc(OC)n2nc(NS(=O)(=O)c3c(OCC(F)F)cccc3C(F)(F)F)nc12", "note": "[Penoxsulam]", "values": [{"measurement": "Mean % weed control", "setting": "POLPE; penoxsulam 20 g ai/ha", "value": 80, "unit": "%"}, {"measurement": "Mean % weed control", "setting": "ECHCO; 20 days, penoxsulam 15 g ai/ha", "value": 38.75, "unit": "%"}, {"measurement": "Mean % weed control", "setting": "ECHCO; 20 days, penoxsulam 20 g ai/ha", "value": 50, "unit": "%"}, {"measurement": "Mean % weed control", "setting": "ECHCO; 35 days, penoxsulam 15 g ai/ha", "value": 55, "unit": "%"}, {"measurement": "Mean % weed control", "setting": "GALAP; 38 days, penoxsulam 20 g ai/ha", "value": 40, "unit": "%"}, {"measurement": "Mean % weed control", "setting": "GALAP; 64 days, penoxsulam 20 g ai/ha", "value": 60, "unit": "%"}, {"measurement": "Mean % weed control", "setting": "TRBSS; 35 days, penoxsulam 5 g ai/ha", "value": 32, "unit": "%"}, {"measurement": "Mean % weed control", "setting": "TRBSS; 35 days, penoxsulam 10 g ai/ha", "value": 38.5, "unit": "%"}, {"measurement": "Mean % weed control", "setting": "TRBSS; 49 days, penoxsulam 5 g ai/ha", "value": 13, "unit": "%"}, {"measurement": "Mean % weed control", "setting": "TRBSS; 49 days, penoxsulam 10 g ai/ha", "value": 32, "unit": "%"}, {"measurement": "Mean % weed control", "setting": "POLCO; 14 days, penoxsulam 15 g ai/ha", "value": 85, "unit": "%"}, {"measurement": "Mean % weed control", "setting": "POLCO; 14 days, penoxsulam 20 g ai/ha", "value": 87.5, "unit": "%"}, {"measurement": "Mean % weed control", "setting": "POLCO; 28 days, penoxsulam 15 g ai/ha", "value": 65, "unit": "%"}, {"measurement": "Mean % weed control", "setting": "POLCO; 28 days, penoxsulam 20 g ai/ha", "value": 77.5, "unit": "%"}, {"measurement": "Mean % weed control", "setting": "POLLA; 14 days, penoxsulam 15 g ai/ha", "value": 85, "unit": "%"}, {"measurement": "Mean % weed control", "setting": "POLLA; 28 days, penoxsulam 15 g ai/ha", "value": 75, "unit": "%"}, {"measurement": "Mean % weed control", "setting": "POLLA; 28 days, penoxsulam 20 g ai/ha", "value": 90, "unit": "%"}, {"measurement": "Mean % weed control", "setting": "POLLA; 98 days, penoxsulam 15 g ai/ha", "value": 71.25, "unit": "%"}, {"measurement": "Mean % weed control", "setting": "CHEAL; 34 days, penoxsulam 20 g ai/ha", "value": 56.67, "unit": "%"}, {"measurement": "Mean % weed control", "setting": "CHEAL; 61 days, penoxsulam 20 g ai/ha", "value": 50, "unit": "%"}, {"measurement": "Mean % weed control", "setting": "AMARE; penoxsulam 12 g ai/ha", "value": 30, "unit": "%"}, {"measurement": "Mean % weed control", "setting": "VIOAR; penoxsulam 20 g ai/ha", "value": 0, "unit": "%"}, {"measurement": "Mean % weed control", "setting": "SOLNI; 64 days, penoxsulam 20 g ai/ha", "value": 40, "unit": "%"}, {"measurement": "Mean % weed control", "setting": "SOLNI; 92 days, penoxsulam 20 g ai/ha", "value": 30, "unit": "%"}, {"measurement": "Mean % weed control", "setting": "CYPRO; penoxsulam 20 g ai/ha", "value": 39.38, "unit": "%"}]}, {"smiles": "CCOCN(C(=O)CCl)c1c(C)cccc1CC", "note": "[Acetochlor, 2-chloro-N-(ethoxymethyl)-N-(2-ethyl-6-methylphenyl)acetamide]", "values": [{"measurement": "Mean % crop injury", "setting": "corn (ZEAMX)", "value": 0, "unit": "%"}, {"measurement": "Mean % weed control", "setting": "POLPE; acetochlor 1400 g ai/ha", "value": 36.67, "unit": "%"}, {"measurement": "Mean % weed control", "setting": "ECHCO; 20 days, acetochlor 15 g ai/ha", "value": 22.5, "unit": "%"}, {"measurement": "Mean % weed control", "setting": "ECHCO; 35 days, acetochlor 15 g ai/ha", "value": 15, "unit": "%"}, {"measurement": "Mean % weed control", "setting": "GALAP; 38 days, acetochlor 1900 g ai/ha", "value": 6.67, "unit": "%"}, {"measurement": "Mean % weed control", "setting": "GALAP; [1]", "value": 10, "unit": "%"}, {"measurement": "Mean % weed control", "setting": "TRBSS; 35 days, acetochlor 1800 g ai/ha", "value": 78, "unit": "%"}, {"measurement": "Mean % weed control", "setting": "TRBSS; 49 days, acetochlor 1800 g ai/ha", "value": 63, "unit": "%"}, {"measurement": "Mean % weed control", "setting": "POLCO; [2]", "value": "5% and 12.5%"}, {"measurement": "Mean % weed control", "setting": "POLLA; 14 days, acetochlor 2300 g ai/ha", "value": 20, "unit": "%"}, {"measurement": "Mean % weed control", "setting": "POLLA; [2]", "value": "10% and 7.5%"}, {"measurement": "Mean % weed control", "setting": "POLLA; 98 days, acetochlor 2300 g ai/ha", "value": 12.5, "unit": "%"}, {"measurement": "Mean % weed control", "setting": "CHEAL; 34 days, acetochlor 1400 g ai/ha", "value": 3.33, "unit": "%"}, {"measurement": "Mean % weed control", "setting": "CHEAL; 61 days, acetochlor 1400 g ai/ha", "value": 36.67, "unit": "%"}, {"measurement": "Mean % weed control", "setting": "AMARE; acetochlor 2000 g ai/ha", "value": 0, "unit": "%"}, {"measurement": "Mean % weed control", "setting": "VIOAR; acetochlor 1400 g ai/ha", "value": 0, "unit": "%"}, {"measurement": "Mean % weed control", "setting": "SOLNI; [1]", "value": 13.33, "unit": "%"}, {"measurement": "Mean % weed control", "setting": "SOLNI; 92 days, acetochlor 1900 g ai/ha", "value": 3.33, "unit": "%"}, {"measurement": "Mean % weed control", "setting": "CYPRO; acetochlor 15 g ai/ha", "value": 4.25, "unit": "%"}]}]}
